Source: patent US6811993B2, “Diagnostic and screening methods based on monocyte PKC activity” (Joslin Diabetes Center, Inc., priority 2000, dated 2004)

Tested on: PKC
Test: PKC activity in mononuclear cells of STZ-induced diabetic rats after treatment
Assay type: in vivo, rat
Settings: male Sprague-Dawley rats, STZ-induced diabetes (56% increase vs control), insulin pellet inserted subcutaneously, after 2 weeks
Procedure: Monocytes of rats and also human control subjects and patients with diabetes were isolated from blood with anticoagulant of sodium citrate. The blood sample was put onto the same volume of Histopaque-1077 (Sigma) and centrifuged at 400×g for 30 minutes at room temperature. The layer containing mononuclear cells was transferred to a new tube and washed with phosphate-buffered saline (PBS). After centrifugation at 400×g for 10 minutes, cell pellet was suspended with a solution of 144 mM NH4Cl and 17 mM Tris-HCl, pH 7.65 to lyse the contaminated red blood cells. Mononuclear cells were washed with PBS and used in this study.
Mononuclear cells of human and rats and retina of rats were suspended in a buffer containing 137 mM NaCl, 4.3 mM KCl, […] Na2HPO4, 0.4 mM KH2PO4, 5.5 mM D-Glucose, 10 mM MgCl2, 1 mM CaCl2, 25 mM β-glycerophosphate, and 20 mM HEPES, pH 7.2. […] The paper was put into a scientillation vial and radioactivity of ^32p was assayed by scientillation counter. The paper was put into a scintillation vial and radioactivity of ^32p incorporated into substrate peptide per minute per mg of protein, and calculated by the difference between the activity in the presence of substrate peptide and the activity in the absence of the peptide.
Male Sprague-Dawley rats at the age of 6 weeks were used in this study. […] PKC activity in these tissues was measured as described below.

Substance: insulin
- PKC activity in rat mononuclear cells: restored to the level of control rats
